According to PubChem BioAssay (NCI):
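Tested at 5 concentrations; 48 h exposure; 96-well plates; endpoints linearly interpolated, else capped at highest concentration. TGI: concentration producing complete growth inhibition.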

These compounds were tested on KM20L2 colon (assay: inhibition of tumour cell growth, NCI panel, 48 h).
In the case of `CCCC1=C(CC)C(C(=O)Nc2c(C)cccc2C)=NC(S)N1` (stereo not drawn), the TGI is reported as > 100 µM.

Each compound was assayed on OVCAR-5 ovarian (assay: inhibition of tumour cell growth, NCI panel, 48 h).
For `Clc1cc(Cl)c2ns[s+]c2c1Cl`, the TGI was > 100 µM.
For `C=C(C)[C@H]1Cc2c(ccc3c2O[C@@H]2COc4cc(OC)c(OC)cc4[C@@H]2C3=O)O1`, the TGI was > 100 µM.
With `COC(=O)[C@@]12C(=O)C=CC(=O)C1C1C(=CC2C)OC2OC3(CCCCC3)OC21` (stereo partly drawn) the TGI was 27.8 µM.
For `CC1=CCC(O)C=CC(C)C(O)C(C)C=C(C)C(=O)c2c(O)c(C)cc3c2C(=O)C(N)=C(NC(=O)/C=C\C=C/C=CC(C)C(O)CC1=O)C3=O` (stereo not drawn), the TGI was > 100 µM.
In the case of `COc1ccc(S(=O)(=O)c2ccccc2[N+](=O)[O-])cc1`, the TGI is reported as > 100 µM.
For `CCOC(=O)C1SC(=Nc2ccc(C)c(C)c2)N=C1C` (stereo not drawn), the TGI was > 100 µM.
`CCCC1=C(CC)C(C(=O)Nc2c(C)cccc2C)=NC(S)N1` (stereo not drawn) was tested, and the TGI was > 100 µM.

Each compound was assayed on ACHN renal (assay: inhibition of tumour cell growth, NCI panel, 48 h).
In the case of `Clc1cc(Cl)c2ns[s+]c2c1Cl`, the TGI is reported as > 100 µM.
For `C=C(C)[C@H]1Cc2c(ccc3c2O[C@@H]2COc4cc(OC)c(OC)cc4[C@@H]2C3=O)O1`, the TGI was 87 µM.
`COC(=O)[C@@]12C(=O)C=CC(=O)C1C1C(=CC2C)OC2OC3(CCCCC3)OC21` (stereo partly drawn) showed a TGI of 30.6 µM.
In the case of `CC1=CCC(O)C=CC(C)C(O)C(C)C=C(C)C(=O)c2c(O)c(C)cc3c2C(=O)C(N)=C(NC(=O)/C=C\C=C/C=CC(C)C(O)CC1=O)C3=O` (stereo not drawn), the TGI is reported as > 100 µM.
With `CCOC(=O)C1SC(=Nc2ccc(C)c(C)c2)N=C1C` (stereo not drawn) the TGI was > 100 µM.
With `CCCC1=C(CC)C(C(=O)Nc2c(C)cccc2C)=NC(S)N1` (stereo not drawn) the TGI was > 100 µM.

The compounds below were run on DU-145 prostate (assay: inhibition of tumour cell growth, NCI panel, 48 h).
`C=C(C)[C@H]1Cc2c(ccc3c2O[C@@H]2COc4cc(OC)c(OC)cc4[C@@H]2C3=O)O1` was tested, and the TGI was 38.9 µM.

Each compound was assayed on KM12 colon (assay: inhibition of tumour cell growth, NCI panel, 48 h).
For `Clc1cc(Cl)c2ns[s+]c2c1Cl`, the TGI was > 100 µM.
Compound `C=C(C)[C@H]1Cc2c(ccc3c2O[C@@H]2COc4cc(OC)c(OC)cc4[C@@H]2C3=O)O1` has a TGI of 14.3 µM.
For `COC(=O)[C@@]12C(=O)C=CC(=O)C1C1C(=CC2C)OC2OC3(CCCCC3)OC21` (stereo partly drawn), the TGI was 36.4 µM.
`CC1=CCC(O)C=CC(C)C(O)C(C)C=C(C)C(=O)c2c(O)c(C)cc3c2C(=O)C(N)=C(NC(=O)/C=C\C=C/C=CC(C)C(O)CC1=O)C3=O` (stereo not drawn) was tested, and the TGI was > 100 µM.
For `COc1ccc(S(=O)(=O)c2ccccc2[N+](=O)[O-])cc1`, the TGI was > 100 µM.
For `CCOC(=O)C1SC(=Nc2ccc(C)c(C)c2)N=C1C` (stereo not drawn), the TGI was > 100 µM.
In the case of `CCCC1=C(CC)C(C(=O)Nc2c(C)cccc2C)=NC(S)N1` (stereo not drawn), the TGI is reported as > 100 µM.

Each compound was assayed on U251 CNS (assay: inhibition of tumour cell growth, NCI panel, 48 h).
In the case of `Clc1cc(Cl)c2ns[s+]c2c1Cl`, the TGI is reported as > 100 µM.
In the case of `C=C(C)[C@H]1Cc2c(ccc3c2O[C@@H]2COc4cc(OC)c(OC)cc4[C@@H]2C3=O)O1`, the TGI is reported as 30.9 µM.
With `COC(=O)[C@@]12C(=O)C=CC(=O)C1C1C(=CC2C)OC2OC3(CCCCC3)OC21` (stereo partly drawn) the TGI was 31.6 µM.
With `CC1=CCC(O)C=CC(C)C(O)C(C)C=C(C)C(=O)c2c(O)c(C)cc3c2C(=O)C(N)=C(NC(=O)/C=C\C=C/C=CC(C)C(O)CC1=O)C3=O` (stereo not drawn) the TGI was > 100 µM.
For `COc1ccc(S(=O)(=O)c2ccccc2[N+](=O)[O-])cc1`, the TGI was > 100 µM.
With `CCOC(=O)C1SC(=Nc2ccc(C)c(C)c2)N=C1C` (stereo not drawn) the TGI was > 100 µM.
With `CCCC1=C(CC)C(C(=O)Nc2c(C)cccc2C)=NC(S)N1` (stereo not drawn) the TGI was > 100 µM.

The compounds below were run on SF-539 CNS (assay: inhibition of tumour cell growth, NCI panel, 48 h).
`Clc1cc(Cl)c2ns[s+]c2c1Cl` was tested, and the TGI was > 100 µM.
`C=C(C)[C@H]1Cc2c(ccc3c2O[C@@H]2COc4cc(OC)c(OC)cc4[C@@H]2C3=O)O1` was tested, and the TGI was 3.36 µM.
`CC1=CCC(O)C=CC(C)C(O)C(C)C=C(C)C(=O)c2c(O)c(C)cc3c2C(=O)C(N)=C(NC(=O)/C=C\C=C/C=CC(C)C(O)CC1=O)C3=O` (stereo not drawn) was tested, and the TGI was > 100 µM.
With `COc1ccc(S(=O)(=O)c2ccccc2[N+](=O)[O-])cc1` the TGI was > 100 µM.
`CCOC(=O)C1SC(=Nc2ccc(C)c(C)c2)N=C1C` (stereo not drawn) was tested, and the TGI was > 100 µM.
With `CCCC1=C(CC)C(C(=O)Nc2c(C)cccc2C)=NC(S)N1` (stereo not drawn) the TGI was > 100 µM.

What follows are compounds tested on SK-MEL-2 melanoma (assay: inhibition of tumour cell growth, NCI panel, 48 h).
In the case of `Clc1cc(Cl)c2ns[s+]c2c1Cl`, the TGI is reported as > 100 µM.
`C=C(C)[C@H]1Cc2c(ccc3c2O[C@@H]2COc4cc(OC)c(OC)cc4[C@@H]2C3=O)O1` gave a TGI of 25.3 µM.
For `COC(=O)[C@@]12C(=O)C=CC(=O)C1C1C(=CC2C)OC2OC3(CCCCC3)OC21` (stereo partly drawn), the TGI was 35.5 µM.
In the case of `CC1=CCC(O)C=CC(C)C(O)C(C)C=C(C)C(=O)c2c(O)c(C)cc3c2C(=O)C(N)=C(NC(=O)/C=C\C=C/C=CC(C)C(O)CC1=O)C3=O` (stereo not drawn), the TGI is reported as > 100 µM.
In the case of `COc1ccc(S(=O)(=O)c2ccccc2[N+](=O)[O-])cc1`, the TGI is reported as > 100 µM.
For `CCOC(=O)C1SC(=Nc2ccc(C)c(C)c2)N=C1C` (stereo not drawn), the TGI was > 100 µM.
For `CCCC1=C(CC)C(C(=O)Nc2c(C)cccc2C)=NC(S)N1` (stereo not drawn), the TGI was > 100 µM.

Each compound was assayed on SK-MEL-28 melanoma (assay: inhibition of tumour cell growth, NCI panel, 48 h).
For `Clc1cc(Cl)c2ns[s+]c2c1Cl`, the TGI was > 100 µM.
Compound `C=C(C)[C@H]1Cc2c(ccc3c2O[C@@H]2COc4cc(OC)c(OC)cc4[C@@H]2C3=O)O1` has a TGI of 81.4 µM.
For `COC(=O)[C@@]12C(=O)C=CC(=O)C1C1C(=CC2C)OC2OC3(CCCCC3)OC21` (stereo partly drawn), the TGI was 33.6 µM.
In the case of `CC1=CCC(O)C=CC(C)C(O)C(C)C=C(C)C(=O)c2c(O)c(C)cc3c2C(=O)C(N)=C(NC(=O)/C=C\C=C/C=CC(C)C(O)CC1=O)C3=O` (stereo not drawn), the TGI is reported as > 100 µM.
`COc1ccc(S(=O)(=O)c2ccccc2[N+](=O)[O-])cc1` was tested, and the TGI was > 100 µM.
For `CCOC(=O)C1SC(=Nc2ccc(C)c(C)c2)N=C1C` (stereo not drawn), the TGI was > 100 µM.
